How the values were obtained:
[1] = Chelator-induced uranium excretion (urine + bile, 24 h) in bile duct-cannulated rat model; type: in vivo
In short: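 Bile duct-cannulated rats received uranyl acetate dihydrate subcutaneously at 5 mg/kg, equal to 2.8 mg/kg uranium, and were then given a chelator. Urine and bile were collected for 24 hours and uranium was quantified by ICPMS. Results give total uranium excreted (urine + bile), the urine/bile split, the percentage of the administered dose cleared, and excretion relative to 14 pooled uranyl acetate-only controls. Each group had at least three animals.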

[2] = Renal uranium content in uranyl acetate-treated bile duct-cannulated rats (FIG. 3); type: in vivo, rat
Description: Desferrithiocin Analogue Induced Excretion of Uranium. In order to compare results with previous chelator-induced iron excretion data, the uranium clearance studies were carried out in a bile duct-cannulated rat model. The animals were given uranyl acetate dihydrate SC at a dose of 5 mg/kg (the actual dose of uranium is 2.8 mg/kg). Bile and urine samples were collected for 24 hours after dosing. Kidneys were removed from selected animals and tissue uranium concentration measured. At least three animals were utilized in each experimental group. Data from two separate control studies (uranyl acetate/ no chelator) have now been combined for a total of 14 control animals. All uranium concentrations were measured using ICPMS. The data are reported as the total quantity of uranium excreted [urine +bile]; the mode of excretion [urine/bile] is also given. In addition the percentage of the administered dose of uranium cleared and chelator-induced uranium excretion vs the controls is also given. Four positive controls were evaluated: DTPA (13, Table 1) given as its trisodium calcium salt, DFO (14), N,N′-bis(2hydroxybenzyl)ethylenediamine-N,N′-diacetic acid, monosodium salt (NaHBED, 15) and the hydroxypyridone CP94 (16) shown to bind uranium [Pashalidis, et al., Effective complex formation in the interaction of 1,2-dimethyl-3-hydroxypyrid-4-one (Deferiprone or L1) with uranium(VI), Journal of Radioanalytical and Nuclear Chemistry 1999; 242:181-184.] The total metal cleared after 24 h in control rats was 10% of the administered dose. When DTPA, 13, was given IP or PO at 300 μmol/kg immediately after uranium, the excretion was 17% and 8% of the administered dose respectively (p>0.05). However, when the drug was given IP at a dose of 600 μmol/kg immediately post-metal, the uranium excretion was significant, 20% (p<0.005). This is consistent with previously published data using a similar animal model.[Domingo, et al., Comparative effects of the chelators sodium 4,5-dihydroxybenzene-1,3-disulfonate (Tiron) and diethylenetriaminepentaacetic acid (DTPA) on acute uranium nephrotoxicity in rats, Toxicology 1997; 118:49-59] DFO (14) and CP94 (16) given IP immediately post uranyl acetate were ineffective.
The most promising analogue in the (S)-2-(2,4-dihydroxyphenyl)-4,5-dihydro-4-thiazolinecarboxylic series is the methoxy analogue (S)-4′-(CH3O)-DADMDFT (11). Given IP at 300 μmol/kg 0.5 h before uranyl acetate or immediately thereafter, nearly 30% of the metal was cleared (Table 1). This was also true if the drug was given IP 0.5 or 2 h post metal. The drug retains some efficacy given 4 h post uranium; 16% of the metal is excreted (p<0.006). When the chelator was given SC immediately post uranium, 40% of the administered metal was cleared. The increased excretion is probably associated with a slower absorption of the ligand. The data from rodents given the drug orally is even more encouraging (Table 1). […] The most profound data are associated with uranium decorporation from the kidneys (FIG. 3). When DTPA is given IP or PO at a dose of 300 μmol/kg immediately post metal, there is no reduction in renal uranium relative to controls. However, (S)-4′-(CH3O)-DADMDFT (11) given orally at a dose of 300 μmol/kg immediately post metal reduces renal uranium by 37% (p<0.005).
There is a small (16%) reduction when the drug is given PO at a dose of 300 μmol/kg 2 h post uranium. However, when 11 is given PO at a dose of 600 μmol/kg 0.5 h post metal, the renal uranium content is reduced by 76% (p<0.001). When given PO at the same dose 1 h post uranium exposure, the reduction is still significant, 42% (p<0.006). In all sets of ligands, the most lipophilic chelator is always the most toxic. […] On the basis of this finding, a less lipophilic, more water-soluble ligand than 12 was assembled, (S)-4′-(HO)-DADFT-PE (18, Table 1), a polyether analogue.

[3] = GLP toxicity and pharmacokinetics profile (NIH Roadmap Program); type: in vivo
Text: 7. This same ligand (11) has now been run through the NIH Roadmap Program and a complete GLP toxicity and pharmacokinetics profile is available.

[4] = in vivo; cited from earlier work

COc1ccc(C2=N[C@@H](C(=O)O)CS2)c(O)c1 [Compound 11, (S)-2-(2-hydroxy-4-methoxyphenyl)-4,5dihydro-4-thiazolecarboxylic acid]
% of Administered Dose Cleared ([1]; 300 μmol/kg IP 0.5 h Post): ~30%
% of Administered Dose Cleared ([1]; 300 μmol/kg IP 0.5 h Post, listed as (S)-4′-(CH3O)-DADMDFT): ~30%
% of Administered Dose Cleared ([1]; 300 μmol/kg IP 0.5 h Pre): ~30%
% of Administered Dose Cleared ([1]; 300 μmol/kg IP 0.5 h Pre, listed as (S)-4′-(CH3O)-DADMDFT): ~30%
% of Administered Dose Cleared ([1]; 300 μmol/kg IP 2 h Post): ~30%
% of Administered Dose Cleared ([1]; 300 μmol/kg IP 4 h Post): 16%
% of Administered Dose Cleared ([1]; 300 μmol/kg IP Immediate): ~30%
% of Administered Dose Cleared ([1]; 300 μmol/kg PO 2 h Post): 18%
% of Administered Dose Cleared ([1]; 300 μmol/kg PO Immediate): 23%
% of Administered Dose Cleared ([1]; 300 μmol/kg SC Immediate): 40%
% of Administered Dose Cleared ([1]; 600 μmol/kg PO 0.5 h Post): 25%
% of Administered Dose Cleared ([1]; 600 μmol/kg PO 1 h Post): 26%
reduction in renal uranium ([2]; PO 300 μmol/kg 2 h post uranium): 16%
reduction in renal uranium relative to controls ([2]; PO 300 μmol/kg immediately post metal): 37%
reduction in renal uranium content ([2]; PO 600 μmol/kg 0.5 h post metal): 76%
reduction in renal uranium content ([2]; PO 600 μmol/kg 1 h post uranium exposure): 42%
no-observed-adverse-effect-level [3]: well within the range of expected human dosing requirements
metabolite formed by metabolic O-demethylation [4]: (S)-4′-(HO)-DADMDFT (9)
